Results published in ChEMBL document CHEMBL1201861, “Genomics of Drug Sensitity in Cancer screening data, Wellcome Trust Sanger Institute”.

Key:
Assay in all cases: cells
DSH1 = assay type: functional, cell-based, Homo sapiens; conditions: Homo sapiens, DSH1;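 note: growth inhibition of human DSH1 cells, measured with a cell viability readout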
Description: SANGER: Inhibition of human DSH1 cell growth in a cell viability assay.

DU-145 = assay type: functional, cell-based, Homo sapiens; conditions: Homo sapiens, DU-145
Description: SANGER: Inhibition of human DU-145 cell growth in a cell viability assay.

DU-4475 = assay type: functional, cell-based; conditions: Homo sapiens
Description: SANGER: Inhibition of human DU-4475 cell growth in a cell viability assay.

EPLC-272H = assay type: functional, cell-based; conditions: Homo sapiens
Description: SANGER: Inhibition of human EPLC-272H cell growth in a cell viability assay.

G-361 = assay type: functional, cell-based, Homo sapiens; conditions: Homo sapiens, G-361
GB-1 = assay type: functional, cell-based, Homo sapiens; conditions: Homo sapiens, GB-1;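 note: growth of GB-1 cells judged by a viability assay, IC50 marks the concentration inhibiting growth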
Description: SANGER: Inhibition of human GB-1 cell growth in a cell viability assay.

H-EMC-SS = assay type: functional, cell-based; conditions: Homo sapiens
Description: SANGER: Inhibition of human H-EMC-SS cell growth in a cell viability assay.

H4 = assay type: functional, cell-based; conditions: Homo sapiens
Description: SANGER: Inhibition of human H4 cell growth in a cell viability assay.

HDLM-2 = assay type: functional, cell-based; conditions: Homo sapiens;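 note: cell viability assay measuring suppression of HDLM-2 proliferation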
Description: SANGER: Inhibition of human HDLM-2 cell growth in a cell viability assay.

HSC-4 = assay type: functional, cell-based, Homo sapiens; conditions: Homo sapiens, HSC-4;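 note: growth inhibition of human HSC-4 cells, read out with a cell viability assay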
Description: SANGER: Inhibition of human HSC-4 cell growth in a cell viability assay.

HT-1080 = assay type: functional, cell-based, Homo sapiens; conditions: Homo sapiens, HT-1080
Description: SANGER: Inhibition of human HT-1080 cell growth in a cell viability assay.

HT-144 = assay type: functional, cell-based, Homo sapiens; conditions: Homo sapiens, HT-144
Description: SANGER: Inhibition of human HT-144 cell growth in a cell viability assay.

HT55 = assay type: functional, cell-based, Homo sapiens; conditions: Homo sapiens, HT55;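 note: cell viability readout measuring growth inhibition of human HT55 cells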
Description: SANGER: Inhibition of human HT55 cell growth in a cell viability assay.

J82 = assay type: functional, cell-based; conditions: Homo sapiens;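 note: growth inhibition of J82 cells, read out with a cell viability assay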
Description: SANGER: Inhibition of human J82 cell growth in a cell viability assay.

LS-123 = assay type: functional, cell-based, Homo sapiens; conditions: Homo sapiens, LS-123
Description: SANGER: Inhibition of human LS-123 cell growth in a cell viability assay.

MEL-JUSO = assay type: functional, cell-based, Homo sapiens; conditions: Homo sapiens, MEL-JUSO;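 note: growth inhibition of human MEL-JUSO cells, read out with a cell viability assay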
Description: SANGER: Inhibition of human MEL-JUSO cell growth in a cell viability assay.

MOLT-13 = assay type: functional, cell-based; conditions: Homo sapiens;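 note: IC50 for suppression of MOLT-13 cell growth, read out with a cell viability assay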
Description: SANGER: Inhibition of human MOLT-13 cell growth in a cell viability assay.

NCI-H1395 = assay type: functional, cell-based, Homo sapiens; conditions: Homo sapiens, NCI-H1395;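 note: cell viability assay read-out quantifying reduced proliferation of human NCI-H1395 cells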
Description: SANGER: Inhibition of human NCI-H1395 cell growth in a cell viability assay.

NCI-H1573 = assay type: functional, cell-based; conditions: Homo sapiens;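 note: growth inhibition of NCI-H1573 cells, read out with a cell viability assay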
Description: SANGER: Inhibition of human NCI-H1573 cell growth in a cell viability assay.

NCI-H1792 = assay type: functional, cell-based, Homo sapiens; conditions: Homo sapiens, NCI-H1792;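 note: growth inhibition of human NCI-H1792 cells, read out as cell viability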
Description: SANGER: Inhibition of human NCI-H1792 cell growth in a cell viability assay.

NCI-H441 = assay type: functional, cell-based; conditions: Homo sapiens;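 note: growth inhibition of NCI-H441 cells, read out with a cell viability assay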
Description: SANGER: Inhibition of human NCI-H441 cell growth in a cell viability assay.

PA-1 = assay type: functional, cell-based, Homo sapiens; conditions: Homo sapiens, PA-1;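 note: IC50 for suppression of PA-1 cell proliferation, determined with a cell viability read-out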
Description: SANGER: Inhibition of human PA-1 cell growth in a cell viability assay.

PC-14 = assay type: functional, cell-based, Homo sapiens; conditions: Homo sapiens, PC-14;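 note: cell viability assay measuring inhibition of PC-14 cell growth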
Description: SANGER: Inhibition of human PC-14 cell growth in a cell viability assay.

SK-MEL3 = assay type: functional, cell-based, Homo sapiens, SK-MEL-3; conditions: Homo sapiens, SK-MEL3;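 note: growth inhibition of human SK-MEL-3 cells, read out with a cell viability assay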
Description: SANGER: Inhibition of human SK-MEL-3 cell growth in a cell viability assay.

SNU-423 = assay type: functional, cell-based, Homo sapiens; conditions: Homo sapiens, SNU-423
Description: SANGER: Inhibition of human SNU-423 cell growth in a cell viability assay.

23132-87 = assay type: functional, cell-based, Homo sapiens; conditions: Homo sapiens
Description: SANGER: Inhibition of human 23132-87 cell growth in a cell viability assay.

A3-KAW = assay type: functional, cell-based; conditions: Homo sapiens;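 note: growth inhibition of human A3-KAW cells, read out with a cell viability assay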
Description: SANGER: Inhibition of human A3-KAW cell growth in a cell viability assay.

AU565 = assay type: functional, cell-based, Homo sapiens; conditions: Homo sapiens, AU565;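 note: cell viability assay measuring growth inhibition of human AU565 cells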
Description: SANGER: Inhibition of human AU565 cell growth in a cell viability assay.

TE-6 = assay type: functional, cell-based, Homo sapiens; conditions: Homo sapiens, TE-6;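 note: growth inhibition of TE-6 cells, read out with a cell viability assay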
Description: SANGER: Inhibition of human TE-6 cell growth in a cell viability assay.

ZR-75-30 = assay type: functional, cell-based; conditions: Homo sapiens;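 note: growth inhibition of ZR-75-30 cells, measured with a cell viability readout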
Description: SANGER: Inhibition of human ZR-75-30 cell growth in a cell viability assay.

no-11 = assay type: functional, cell-based, Homo sapiens; conditions: Homo sapiens;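 note: growth inhibition of human NO-11 cells, read out with a cell viability assay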
Description: SANGER: Inhibition of human no-11 cell growth in a cell viability assay.

CGTH-W-1 = assay type: functional, cell-based, Homo sapiens; conditions: Homo sapiens, CGTH-W-1;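 note: growth inhibition of human CGTH-W-1 cells measured by cell viability assay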
Description: SANGER: Inhibition of human CGTH-W-1 cell growth in a cell viability assay.

COLO-680N = assay type: functional, cell-based, Homo sapiens; conditions: Homo sapiens, COLO-680N;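 note: cell viability assay used to measure inhibition of COLO-680N cell growth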
Description: SANGER: Inhibition of human COLO-680N cell growth in a cell viability assay.

SMILES | IC50 (DSH1) | IC50 (DU-145) | IC50 (DU-4475) | IC50 (EPLC-272H) | IC50 (G-361) | IC50 (GB-1) | IC50 (H-EMC-SS) | IC50 (H4) | IC50 (HDLM-2) | IC50 (HSC-4) | IC50 (HT-1080) | IC50 (HT-144) | IC50 (HT55) | IC50 (J82) | IC50 (LS-123) | IC50 (MEL-JUSO) | IC50 (MOLT-13) | IC50 (NCI-H1395) | IC50 (NCI-H1573) | IC50 (NCI-H1792) | other results
Nc1ccn([C@@H]2O[C@H](CO)[C@@H](O)[C@@H]2O)c(=O)n1 [CYTARABINE] | > 2000 nM | > 2000 nM | 575 nM | 1450 nM | > 2000 nM | > 2000 nM | 145 nM | 274 nM | > 2000 nM | 467 nM | 114 nM | 1230 nM | > 2000 nM | 1620 nM | > 2000 nM | 85.8 nM | > 2000 nM | > 2000 nM | > 2000 nM | 1420 nM | IC50 (NCI-H441): > 2000 nM; IC50 (PA-1): 187 nM; IC50 (PC-14): 610 nM; IC50 (SK-MEL3): > 2000 nM; IC50 (SNU-423): 881 nM; IC50 (23132-87): 319 nM; IC50 (A3-KAW): 844 nM; IC50 (AU565): > 2000 nM; IC50 (TE-6): > 2000 nM; IC50 (ZR-75-30): > 2000 nM; IC50 (no-11): > 2000 nM; IC50 (CGTH-W-1): 182 nM; IC50 (COLO-680N): > 2000 nM
CC(=O)O[C@@]12CO[C@@H]1C[C@H](O)[C@@]1(C)C(=O)[C@H](O)C3=C(C)[C@@H](OC(=O)[C@H](O)[C@@H](NC(=O)OC(C)(C)C)c4ccccc4)C[C@@](O)([C@@H](OC(=O)c4ccccc4)[C@H]21)C3(C)C [DOCETAXEL] | > 10 nM | > 10 nM | 3.02 nM | 1.11 nM | > 10 nM | 5.11 nM | > 10 nM | 1.96 nM | > 10 nM | 0.239 nM | 0.501 nM | 0.157 nM | > 10 nM | > 10 nM | 4.25 nM | 6.39 nM | > 10 nM | 3.96 nM | 6.07 nM | 1.04 nM | IC50 (NCI-H441): > 10 nM; IC50 (PA-1): 0.687 nM; IC50 (PC-14): 2.09 nM; IC50 (SK-MEL3): > 10 nM; IC50 (SNU-423): 8.57 nM; IC50 (23132-87): 1.55 nM; IC50 (A3-KAW): > 10 nM; IC50 (AU565): 1.81 nM; IC50 (TE-6): > 10 nM; IC50 (ZR-75-30): > 10 nM; IC50 (no-11): > 10 nM; IC50 (CGTH-W-1): 0.542 nM; IC50 (COLO-680N): 5.08 nM
